# Data from PubChem BioAssay (NCI).
#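 Assay format: 96-well plates, 48-hour exposure. GI50 = concentration required for 50% inhibition of growth. TGI marks complete inhibition of growth.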
# Experiments:
# Experiment in all cases: NCI anticancer screen, dose series, 48 h
# MCF7 breast = tested on: MCF7 breast
# SK-MEL-2 melanoma = tested on: SK-MEL-2 melanoma
# UACC-62 melanoma = tested on: UACC-62 melanoma
# A549 NSCLC = tested on: A549 NSCLC
# HL-60(TB) leukemia = tested on: HL-60(TB) leukemia
# MDA-MB-231 breast = tested on: MDA-MB-231 breast
# HOP-92 NSCLC = tested on: HOP-92 NSCLC
# HCT-116 colon = tested on: HCT-116 colon
# NCI/ADR-RES ovarian = tested on: NCI/ADR-RES ovarian
# LOX IMVI melanoma = tested on: LOX IMVI melanoma
# DU-145 prostate = tested on: DU-145 prostate
# SK-MEL-28 melanoma = tested on: SK-MEL-28 melanoma
# CCRF-CEM leukemia = tested on: CCRF-CEM leukemia
# NCI-H522 lung = tested on: NCI-H522 lung
# PC-3 prostate = tested on: PC-3 prostate
# NCI-H23 lung = tested on: NCI-H23 lung
# ACHN renal = tested on: ACHN renal
# U251 CNS = tested on: U251 CNS
# UO-31 renal = tested on: UO-31 renal
# CAKI-1 renal = tested on: CAKI-1 renal
# MDA-N = tested on: MDA-N
# OVCAR-5 ovarian = tested on: OVCAR-5 ovarian
# HS 578T breast = tested on: HS 578T breast
# MALME-3M melanoma = tested on: MALME-3M melanoma
# HT29 colon = tested on: HT29 colon
# SN12C renal = tested on: SN12C renal
# TK-10 renal = tested on: TK-10 renal
# NCI-H460 lung = tested on: NCI-H460 lung
# IGROV1 ovarian = tested on: IGROV1 ovarian
# COLO 205 colon = tested on: COLO 205 colon
# KM12 colon = tested on: KM12 colon
# OVCAR-4 ovarian = tested on: OVCAR-4 ovarian
# RXF 393 renal = tested on: RXF 393 renal
# HCT-15 colon = tested on: HCT-15 colon
# RPMI-8226 leukemia = tested on: RPMI-8226 leukemia
# K-562 leukemia = tested on: K-562 leukemia
# EKVX NSCLC = tested on: EKVX NSCLC
# NCI-H226 lung = tested on: NCI-H226 lung
# OVCAR-8 ovarian = tested on: OVCAR-8 ovarian
# SW-620 colon = tested on: SW-620 colon
# SF-539 CNS = tested on: SF-539 CNS
# UACC-257 melanoma = tested on: UACC-257 melanoma
# SF-268 CNS = tested on: SF-268 CNS
# SR leukemia = tested on: SR leukemia
# MOLT-4 leukemia = tested on: MOLT-4 leukemia
# MDA-MB-435 = tested on: MDA-MB-435
# SNB-75 CNS = tested on: SNB-75 CNS
# SNB-19 CNS = tested on: SNB-19 CNS
# M14 melanoma = tested on: M14 melanoma
# A498 renal = tested on: A498 renal
# SK-MEL-5 melanoma = tested on: SK-MEL-5 melanoma
# 786-0 renal = tested on: 786-0 renal
# SF-295 CNS = tested on: SF-295 CNS
# OVCAR-3 ovarian = tested on: OVCAR-3 ovarian
# T-47D breast = tested on: T-47D breast
# SK-OV-3 ovarian = tested on: SK-OV-3 ovarian
# HCC-2998 colon = tested on: HCC-2998 colon
# HOP-62 NSCLC = tested on: HOP-62 NSCLC
# BT-549 breast = tested on: BT-549 breast
compound,measurement,setting,value
COc1cc(O)c2c(=O)cc(-c3ccc(O)cc3O)oc2c1CC=C(C)C,TGI,MCF7 breast,75.7 µM
same,TGI,SK-MEL-2 melanoma,39.1 µM
same,TGI,UACC-62 melanoma,39.3 µM
same,TGI,A549 NSCLC,29.7 µM
same,TGI,HL-60(TB) leukemia,34.4 µM
same,TGI,MDA-MB-231 breast,54.1 µM
same,TGI,HOP-92 NSCLC,35.7 µM
same,TGI,HCT-116 colon,32.4 µM
same,TGI,NCI/ADR-RES ovarian,> 100 µM
same,TGI,LOX IMVI melanoma,28.3 µM
same,TGI,DU-145 prostate,> 100 µM
same,TGI,SK-MEL-28 melanoma,> 100 µM
same,TGI,CCRF-CEM leukemia,63 µM
same,TGI,NCI-H522 lung,33.6 µM
same,TGI,PC-3 prostate,27.1 µM
same,TGI,NCI-H23 lung,32.5 µM
same,TGI,ACHN renal,30.4 µM
same,TGI,U251 CNS,38.2 µM
same,TGI,UO-31 renal,33.5 µM
same,TGI,CAKI-1 renal,32.5 µM
same,TGI,MDA-N,61.5 µM
same,TGI,OVCAR-5 ovarian,> 100 µM
same,TGI,HS 578T breast,> 100 µM
same,TGI,MALME-3M melanoma,33 µM
same,TGI,HT29 colon,16.3 µM
same,TGI,SN12C renal,31.5 µM
same,TGI,TK-10 renal,74.3 µM
same,TGI,NCI-H460 lung,27.7 µM
same,TGI,IGROV1 ovarian,39.6 µM
same,TGI,COLO 205 colon,26.7 µM
same,TGI,KM12 colon,21.5 µM
same,TGI,OVCAR-4 ovarian,28.5 µM
same,TGI,RXF 393 renal,19.6 µM
same,TGI,HCT-15 colon,25.5 µM
same,TGI,RPMI-8226 leukemia,> 100 µM
same,TGI,K-562 leukemia,> 100 µM
same,TGI,EKVX NSCLC,73.6 µM
same,TGI,NCI-H226 lung,38 µM
same,TGI,OVCAR-8 ovarian,35.3 µM
same,TGI,SW-620 colon,> 100 µM
same,TGI,SF-539 CNS,34.7 µM
same,TGI,UACC-257 melanoma,86.6 µM
same,TGI,SF-268 CNS,63.4 µM
same,TGI,SR leukemia,26.3 µM
same,TGI,MOLT-4 leukemia,83.2 µM
same,TGI,MDA-MB-435,> 100 µM
same,TGI,SNB-75 CNS,46.1 µM
same,TGI,SNB-19 CNS,44.5 µM
same,TGI,M14 melanoma,30.2 µM
same,TGI,A498 renal,66.4 µM
same,TGI,SK-MEL-5 melanoma,47.9 µM
same,TGI,786-0 renal,> 100 µM
same,TGI,SF-295 CNS,30.2 µM
CSc1ccc(C(=C=C=C(c2ccc(SC)s2)c2ccc(SC)s2)c2ccc(SC)s2)s1,TGI,A549 NSCLC,> 10 µM
same,TGI,MDA-MB-231 breast,> 10 µM
same,TGI,HOP-92 NSCLC,> 10 µM
same,TGI,HCT-116 colon,> 10 µM
same,TGI,NCI/ADR-RES ovarian,> 10 µM
same,TGI,DU-145 prostate,> 10 µM
same,TGI,SK-MEL-28 melanoma,> 10 µM
same,TGI,OVCAR-3 ovarian,> 10 µM
same,TGI,PC-3 prostate,> 10 µM
same,TGI,NCI-H23 lung,> 10 µM
same,TGI,ACHN renal,> 10 µM
same,TGI,U251 CNS,> 10 µM
same,TGI,UO-31 renal,> 10 µM
same,TGI,CAKI-1 renal,> 10 µM
same,TGI,MDA-N,> 10 µM
same,TGI,OVCAR-5 ovarian,> 10 µM
same,TGI,HT29 colon,> 10 µM
same,TGI,SN12C renal,> 10 µM
same,TGI,TK-10 renal,> 10 µM
same,TGI,IGROV1 ovarian,> 10 µM
same,TGI,COLO 205 colon,> 10 µM
same,TGI,KM12 colon,> 10 µM
same,TGI,OVCAR-4 ovarian,> 10 µM
same,TGI,RXF 393 renal,> 10 µM
same,TGI,HCT-15 colon,> 10 µM
same,TGI,EKVX NSCLC,> 10 µM
same,TGI,NCI-H226 lung,> 10 µM
same,TGI,OVCAR-8 ovarian,> 10 µM
same,TGI,SW-620 colon,> 10 µM
same,TGI,SF-539 CNS,> 10 µM
same,TGI,SF-268 CNS,> 10 µM
same,TGI,MDA-MB-435,> 10 µM
same,TGI,SNB-75 CNS,> 10 µM
same,TGI,SNB-19 CNS,> 10 µM
same,TGI,M14 melanoma,> 10 µM
same,TGI,A498 renal,> 10 µM
same,TGI,SK-MEL-5 melanoma,> 10 µM
same,TGI,SF-295 CNS,> 10 µM
O=C(CCCCCCCCC(=O)N/N=C\c1ccccc1O)N/N=C\c1ccccc1O,GI50,MCF7 breast,1.99 µM
same,TGI,MCF7 breast,> 100 µM
same,GI50,SK-MEL-2 melanoma,0.469 µM
same,TGI,SK-MEL-2 melanoma,> 36.8 µM
same,GI50,UACC-62 melanoma,0.331 µM
same,TGI,UACC-62 melanoma,5.54 µM
same,GI50,A549 NSCLC,0.81 µM
same,TGI,A549 NSCLC,> 25.2 µM
same,GI50,HL-60(TB) leukemia,0.203 µM
same,TGI,HL-60(TB) leukemia,0.687 µM
same,GI50,MDA-MB-231 breast,0.225 µM
same,TGI,MDA-MB-231 breast,32.2 µM
same,GI50,HOP-92 NSCLC,0.216 µM
same,TGI,HOP-92 NSCLC,0.889 µM
same,GI50,HCT-116 colon,0.459 µM
same,TGI,HCT-116 colon,15.2 µM
same,GI50,NCI/ADR-RES ovarian,0.514 µM
same,TGI,NCI/ADR-RES ovarian,25.4 µM
same,GI50,LOX IMVI melanoma,0.273 µM
same,TGI,LOX IMVI melanoma,6.07 µM
same,GI50,DU-145 prostate,0.579 µM
same,TGI,DU-145 prostate,15.5 µM
same,GI50,SK-MEL-28 melanoma,1.08 µM
same,TGI,SK-MEL-28 melanoma,> 100 µM
same,GI50,T-47D breast,2.89 µM
same,TGI,T-47D breast,> 49.4 µM
same,GI50,OVCAR-3 ovarian,0.343 µM
same,TGI,OVCAR-3 ovarian,> 51.2 µM
same,GI50,SK-OV-3 ovarian,0.899 µM
same,TGI,SK-OV-3 ovarian,15.6 µM
same,GI50,CCRF-CEM leukemia,0.228 µM
same,TGI,CCRF-CEM leukemia,17.4 µM
same,GI50,NCI-H522 lung,0.257 µM
same,TGI,NCI-H522 lung,> 100 µM
same,GI50,PC-3 prostate,0.855 µM
same,TGI,PC-3 prostate,> 58.6 µM
same,GI50,NCI-H23 lung,0.75 µM
same,TGI,NCI-H23 lung,21.9 µM
same,GI50,ACHN renal,0.235 µM
same,TGI,ACHN renal,20.1 µM
same,GI50,U251 CNS,0.308 µM
same,TGI,U251 CNS,9.14 µM
same,GI50,HCC-2998 colon,2.92 µM
same,TGI,HCC-2998 colon,> 100 µM
same,GI50,UO-31 renal,0.197 µM
same,TGI,UO-31 renal,3.9 µM
same,GI50,CAKI-1 renal,0.318 µM
same,TGI,CAKI-1 renal,14.9 µM
same,GI50,OVCAR-5 ovarian,3.35 µM
same,TGI,OVCAR-5 ovarian,> 90.3 µM
same,GI50,HS 578T breast,3.55 µM
same,TGI,HS 578T breast,41.6 µM
same,GI50,MALME-3M melanoma,0.566 µM
same,TGI,MALME-3M melanoma,17.7 µM
same,GI50,HT29 colon,4.62 µM
same,TGI,HT29 colon,> 36.6 µM
same,GI50,SN12C renal,0.7 µM
same,TGI,SN12C renal,> 42.4 µM
same,GI50,TK-10 renal,1.87 µM
same,TGI,TK-10 renal,> 46.7 µM
same,GI50,NCI-H460 lung,0.27 µM
same,TGI,NCI-H460 lung,1.47 µM
same,GI50,IGROV1 ovarian,1.73 µM
same,TGI,IGROV1 ovarian,54.5 µM
same,GI50,COLO 205 colon,2.63 µM
same,TGI,COLO 205 colon,> 35.2 µM
same,GI50,KM12 colon,0.785 µM
same,TGI,KM12 colon,> 40.3 µM
same,GI50,OVCAR-4 ovarian,0.33 µM
same,TGI,OVCAR-4 ovarian,> 100 µM
same,GI50,HOP-62 NSCLC,0.418 µM
same,TGI,HOP-62 NSCLC,4.72 µM
same,GI50,RXF 393 renal,0.353 µM
same,TGI,RXF 393 renal,2.95 µM
same,GI50,BT-549 breast,0.982 µM
same,TGI,BT-549 breast,> 100 µM
same,GI50,HCT-15 colon,0.298 µM
same,TGI,HCT-15 colon,> 100 µM
same,GI50,RPMI-8226 leukemia,1.03 µM
same,TGI,RPMI-8226 leukemia,35.8 µM
same,GI50,K-562 leukemia,0.398 µM
same,TGI,K-562 leukemia,27.8 µM
same,GI50,EKVX NSCLC,1.53 µM
same,TGI,EKVX NSCLC,> 69.6 µM
same,GI50,NCI-H226 lung,0.49 µM
same,TGI,NCI-H226 lung,11 µM
same,GI50,OVCAR-8 ovarian,0.349 µM
same,TGI,OVCAR-8 ovarian,5.8 µM
same,GI50,SW-620 colon,1.28 µM
same,TGI,SW-620 colon,24.1 µM
same,GI50,SF-539 CNS,0.452 µM
same,TGI,SF-539 CNS,17.4 µM
same,GI50,UACC-257 melanoma,0.368 µM
same,TGI,UACC-257 melanoma,4.07 µM
same,GI50,SF-268 CNS,0.342 µM
same,TGI,SF-268 CNS,9.72 µM
same,GI50,SR leukemia,0.16 µM
same,TGI,SR leukemia,12.9 µM
same,GI50,MOLT-4 leukemia,0.338 µM
same,TGI,MOLT-4 leukemia,7.37 µM
same,GI50,MDA-MB-435,0.704 µM
same,TGI,MDA-MB-435,> 100 µM
same,GI50,SNB-75 CNS,1.82 µM
same,TGI,SNB-75 CNS,15.3 µM
same,GI50,SNB-19 CNS,0.763 µM
same,TGI,SNB-19 CNS,> 59.4 µM
same,GI50,M14 melanoma,0.306 µM
same,TGI,M14 melanoma,1.78 µM
same,GI50,A498 renal,3.1 µM
same,TGI,A498 renal,26.9 µM
same,GI50,SK-MEL-5 melanoma,0.231 µM
same,TGI,SK-MEL-5 melanoma,1.12 µM
same,GI50,786-0 renal,0.334 µM
same,TGI,786-0 renal,1.99 µM
same,GI50,SF-295 CNS,1.07 µM
same,TGI,SF-295 CNS,31.7 µM
